Experimental data reported in patent US10336726B2, “3-methyl-pyrrolidine-2,5-dione derivatives useful as CGRP receptor antagonists” (Eli Lilly and Company, priority 2017, dated 2019).
Read-outs that look alike come from different tables or passages of the source.

How the values were obtained:
[1] = biological target: T1, hCGRP (human calcitonin gene-related peptide) receptor (Homo sapiens, UniProt O60894+Q16602); assay: Inhibition of cAMP production by CGRP receptor antagonists in SK-N-MC cells (HTRF); assay type: cell-based; conditions: 0.8 nM human CGRP challenge, agonist-corrected IC50, mean±SEM, n=11, read-out: Kb measured at human CGRP
T1 construct: Cultured SK-N-MC neuroblastoma cells that endogenously express the hCGRP receptor (ATCC); host or cells: SK-N-MC neuroblastoma cells
T1 sequence (Q16602 23-461): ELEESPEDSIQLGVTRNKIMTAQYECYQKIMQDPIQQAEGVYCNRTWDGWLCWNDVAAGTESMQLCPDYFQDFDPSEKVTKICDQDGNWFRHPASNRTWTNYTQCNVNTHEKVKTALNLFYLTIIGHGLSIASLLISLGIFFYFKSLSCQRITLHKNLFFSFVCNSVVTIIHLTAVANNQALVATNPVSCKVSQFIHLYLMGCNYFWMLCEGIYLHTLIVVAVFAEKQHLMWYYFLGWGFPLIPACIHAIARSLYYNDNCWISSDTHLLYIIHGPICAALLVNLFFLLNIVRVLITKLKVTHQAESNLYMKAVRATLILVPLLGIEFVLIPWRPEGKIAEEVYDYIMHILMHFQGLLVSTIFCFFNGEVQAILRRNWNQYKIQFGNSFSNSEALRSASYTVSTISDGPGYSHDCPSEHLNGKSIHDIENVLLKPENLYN
T1 sequence (O60894 27-148): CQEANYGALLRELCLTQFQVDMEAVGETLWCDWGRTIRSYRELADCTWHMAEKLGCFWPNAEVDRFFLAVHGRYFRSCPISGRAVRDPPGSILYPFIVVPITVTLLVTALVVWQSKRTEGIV
Excerpt: Inhibition of cAMP Production by CGRP Receptor Antagonists
The hCGRP (human calcitonin gene-related peptide) receptor is functionally coupled to the Gas proteins. Stimulation of hCGRP results in an increased synthesis of intracellular cAMP and can be blocked by the addition of receptor antagonists. Receptor activity is thus a reflection of the amount of cAMP present within cells which can be detected using standard in vitro technology.
Cultured SK-N-MC neuroblastoma cells that endogenously express the hCGRP receptor (ATCC) are grown in Eagle's Minimum essential medium (HYCLONE™) supplemented with 10% heat-inactivated Fetal bovine serum (FBS; GIBCO®), Non-Essential Amino Acids (GIBCO®), 1 mM sodium pyruvate, 2 mM L-glutamine, 100 U/mL of penicillin, and 10 μg/mL of streptomycin to about 70% confluency. […]
The amount of intracellular cAMP is quantitated using HTRF technology (Cisbio) as per vendor instructions. […] The HTRF signal is immediately detected using an ENVISION® plate reader (Perkin-Elmer) to calculate the ratio of fluorescence at […]. […] Relative EC50 values are calculated from the top-bottom range of the concentration response curve using a four-parameter logistic curve fitting program (ACTIVITYBASE® v5.3.1.22 or GENEDATA SCREENER® v12.0.4), and Kb values are estimated as agonist-corrected IC50 values using the equation: Kb=(IC50)/[1+([Agonist]/EC50)]. […]

[2] = biological target: T2, ABCB1, human P-glycoprotein (Pgp) (Homo sapiens, UniProt P08183); assay: In vitro determination of efflux by Pgp; bi-directional transport across MDCKII cells; assay type: in vitro ADME; conditions: MDCKII cells expressing human ABCB1, 5 μM substrate, 60 min, B-A/A-B Papp ratios with/without inhibitor
T2 construct: host or cells: MDCKII cells
T2 sequence (P08183 whole entry): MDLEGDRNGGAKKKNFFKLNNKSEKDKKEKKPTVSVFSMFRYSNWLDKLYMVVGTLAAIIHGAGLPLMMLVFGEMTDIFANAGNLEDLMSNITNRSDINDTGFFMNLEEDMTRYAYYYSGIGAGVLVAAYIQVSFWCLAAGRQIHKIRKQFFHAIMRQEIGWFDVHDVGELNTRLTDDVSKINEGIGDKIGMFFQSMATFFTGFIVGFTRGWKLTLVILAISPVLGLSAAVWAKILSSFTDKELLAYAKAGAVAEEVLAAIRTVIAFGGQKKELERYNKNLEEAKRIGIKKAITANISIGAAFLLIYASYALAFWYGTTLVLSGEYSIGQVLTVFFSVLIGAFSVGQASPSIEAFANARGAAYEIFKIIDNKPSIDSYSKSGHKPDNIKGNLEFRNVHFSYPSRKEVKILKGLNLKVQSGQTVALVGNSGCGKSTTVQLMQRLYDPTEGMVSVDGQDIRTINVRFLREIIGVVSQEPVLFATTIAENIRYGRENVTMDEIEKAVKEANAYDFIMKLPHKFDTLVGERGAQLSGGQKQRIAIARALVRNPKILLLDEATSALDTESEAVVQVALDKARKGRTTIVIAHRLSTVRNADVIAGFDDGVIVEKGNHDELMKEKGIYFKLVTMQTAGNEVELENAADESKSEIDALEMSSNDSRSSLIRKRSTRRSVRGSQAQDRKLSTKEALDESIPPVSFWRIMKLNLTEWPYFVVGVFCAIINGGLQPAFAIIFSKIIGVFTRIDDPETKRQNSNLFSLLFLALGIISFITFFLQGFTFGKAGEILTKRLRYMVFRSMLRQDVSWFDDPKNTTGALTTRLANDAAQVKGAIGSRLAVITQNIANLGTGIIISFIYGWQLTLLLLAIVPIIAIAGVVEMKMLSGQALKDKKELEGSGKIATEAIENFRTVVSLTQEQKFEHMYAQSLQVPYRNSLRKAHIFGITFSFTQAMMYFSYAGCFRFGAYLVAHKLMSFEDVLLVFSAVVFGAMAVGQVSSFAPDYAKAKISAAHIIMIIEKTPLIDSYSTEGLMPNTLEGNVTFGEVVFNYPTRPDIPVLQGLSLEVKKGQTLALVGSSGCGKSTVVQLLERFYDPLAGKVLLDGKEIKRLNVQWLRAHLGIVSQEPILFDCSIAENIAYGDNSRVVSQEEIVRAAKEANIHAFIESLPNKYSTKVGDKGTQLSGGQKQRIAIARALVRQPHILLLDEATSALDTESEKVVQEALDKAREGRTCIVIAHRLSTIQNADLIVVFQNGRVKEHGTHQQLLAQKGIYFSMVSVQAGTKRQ
Method: In Vitro Determination of Efflux by ABCB1, Human P-Glycoprotein (Pgp)
MDCKII cells stably expressing human wild-type ABCB1 (Pgp) are obtained from the Netherlands Cancer Institute (Amsterdam, The Netherlands). MDCK cells are maintained as described previously (Desai et al., Mol Pharm 10:1249-1261, 2013).
The assay is essentially conducted as described previously (Desai et al., Mol Pharm 10:1249-1261, 2013). Transport is measured in both directions across uninhibited and inhibited cell monolayers using a substrate concentration of 5 μM diluted from a 10 mM DMSO stock solution (final DMSO concentration of 0.05%) and a single 60-min time interval. […] The apparent permeability coefficients (Papp) are estimated as the slope of the mass transported per 60 min relative to the total recovered mass. The basal-to-apical (B-A)/apical-to-basal (A-B) Papp ratios are calculated in the absence or presence of inhibitor in each cell line for net efflux ratio (NER). The NER of the compound of Example 1 for efflux by Pgp is determined to be 1.7.

[3] = Rat plasma and brain homogenate protein binding by equilibrium dialysis; assay type: in vitro ADME
Method: Determination of Plasma and Brain Protein Binding:
Rat plasma and brain homogenate protein in vitro binding is determined using equilibrium dialysis, as described elsewhere [Zamek-Gliszczynski et al., J Pharm Sci, 101:1932-1940, 2012]. The results are reported as fraction unbound in plasma (fu,plasma) and brain (fu,brain), which are then utilized to calculate Kp,uu,brain, as described in Table 1. Rat fu,plasma and fu,brain of the compound of Example 1 are determined to be 0.071 and 0.043, respectively.

[4] = In vivo determination of plasma and brain concentrations and unbound brain-to-plasma partition coefficient (Kp,uu,brain) in rats; conditions: for concentration at 1 h / concentration at 3 h: male, Sprague-Dawley, oral, 10 mg/kg
Method: In Vivo Determination of Unbound Brain-to-Plasma Partition Coefficient (Kp,uu,brain) in Rats
Unbound brain-to-plasma partition coefficient (Kp,uu,brain) is one of the key pharmacokinetic parameter for evaluating a compound's ability to cross the blood-brain barrier (BBB) (Hammarlund-Udenaes, M.; Friden, M.; Syvanen, S.; Gupta, A. On the Rate and Extent of Drug Delivery to the Brain. Pharm. Res. 2008, 25 (8), 1737-1750).
Animal studies are performed under protocols approved by the Covance Institutional Animal Care and Use Committee. Male Sprague-Dawley rats weighing 250-350 g are obtained from Harlan Sprague Dawley Inc. (Indianapolis, Ind.). Animals have access to food and water ad libitum before and during the study.
Animals each receive 10 mg/kg of the CGRP receptor antagonist compound of Example 1, administered orally in 10 ml/kg of hydroxyethylcellulose 1% w/v/polysorbate 80 0.25% v/v/Antifoam 1510-US 0.05% v/v/in purified water (probe sonicated).
Three animals per time point are used. […] The blood samples are treated with K3-EDTA anticoagulant, and plasma is obtained by centrifugation at 1600 g for 10 minutes. The brain samples are weighed and homogenized, without perfusion. All samples are stored at −70° C. until analysis by LC-MS/MS to determine the concentration of the compound of Example 1 in plasma and brain at each time point.
Kp,uu,brain is calculated for each time point from the expression below where individual components are derived from a combination of in vitro and in vivo measurements carried out as described above:
[formula] where Ctotal,brain, Cu,brain, Ctotal,plasma and Cu,plasma are total and unbound brain and plasma concentrations, and fu,brain and fu,plasma are fractions unbound in brain and plasma, respectively.

Q: Which Kb [1] does the source give for `Cc1cc(OCc2ccc([C@@H](C)[C@]3(C)CC(=O)NC3=O)cc2)cc(C2CC2)n1` [Example 1, (3S)-3-[(1R)-1-[4-[(2-cyclopropyl-6-methyl-4-pyridyl)oxymethyl]phenyl]ethyl]-3-methyl-pyrrolidine-2,5-dione] here?
A: The Kb was 0.57 ± 0.25 nM.

Q: And the “net efflux ratio (NER) for efflux by Pgp” value [2]?
A: Its value is 1.7.

Q: And the fraction unbound in brain (fu,brain) ([3]; rat brain homogenate)?
A: Its fraction unbound in brain (fu,brain) is 0.043.

Q: And the fraction unbound ([3]; rat plasma, read-out: fraction unbound in plasma (fu,plasma))?
A: Its fraction unbound is 0.071.

Q: And the “Unbound brain conc. (Cu,brain)” value ([4]; 1.0 hr post 10 mg/kg oral dose, male Sprague-Dawley rats, using rat fu,brain 0.043, mean ± SD)?
A: The value was 41 ± 15 nM.

Q: What about the “Unbound brain conc. (Cu,brain)” value ([4]; 3.0 hr post 10 mg/kg oral dose, male Sprague-Dawley rats, using rat fu,brain 0.043, mean ± SD) of the same compound?
A: Its value is 22 ± 5 nM.

Q: And the concentration at 1 h ([4]; rat, brain, 1.0 hr post 10 mg/kg oral dose, mean ± SD, read-out: Total brain conc. (Ctotal,brain))?
A: Its concentration at 1 h is 962 ± 341 nM.

Q: And the concentration at 1 h ([4]; rat, brain, 1.0 hr post 10 mg/kg oral dose, using rat fu,brain 0.043, mean ± SD, read-out: Unbound brain conc. (Cu,brain))?
A: Its concentration at 1 h is 41 ± 15 nM.

Q: And the concentration at 3 h ([4]; rat, brain, 3.0 hr post 10 mg/kg oral dose, mean ± SD, read-out: Total brain conc. (Ctotal,brain))?
A: The concentration at 3 h was 515 ± 111 nM.

Q: And the concentration at 3 h ([4]; rat, brain, 3.0 hr post 10 mg/kg oral dose, using rat fu,brain 0.043, mean ± SD, read-out: Unbound brain conc. (Cu,brain))?
A: The concentration at 3 h was 22 ± 5 nM.

Q: And the concentration at 1 h ([4]; rat, plasma, 1.0 hr post 10 mg/kg oral dose, mean ± SD, read-out: Total plasma conc. (Ctotal,plasma))?
A: Its concentration at 1 h is 655 ± 183 nM.

Q: And the concentration at 1 h ([4]; rat, plasma, 1.0 hr post 10 mg/kg oral dose, using rat fu,plasma 0.071, mean ± SD, read-out: Unbound plasma conc. (Cu,plasma))?
A: Its concentration at 1 h is 47 ± 13 nM.

Q: What about the concentration at 3 h ([4]; rat, plasma, 3.0 hr post 10 mg/kg oral dose, mean ± SD, read-out: Total plasma conc. (Ctotal,plasma)) of the same compound?
A: Its concentration at 3 h is 368 ± 127 nM.

Q: And the concentration at 3 h ([4]; rat, plasma, 3.0 hr post 10 mg/kg oral dose, using rat fu,plasma 0.071, mean ± SD, read-out: Unbound plasma conc. (Cu,plasma))?
A: Its concentration at 3 h is 26 ± 9 nM.

Q: What about the Kp uu at 1 h ([4]; rat, brain/plasma, 1.0 hr post 10 mg/kg oral dose, male Sprague-Dawley rats, mean ± SD) of the same compound?
A: The Kp uu at 1 h was 0.89 ± 0.17.

Q: What about the Kp uu at 3 h ([4]; rat, brain/plasma, 3.0 hr post 10 mg/kg oral dose, male Sprague-Dawley rats, mean ± SD) of the same compound?
A: Its Kp uu at 3 h is 0.93 ± 0.43.
